From patent US20260062412A1, “NITROGEN-CONTAINING HETEROCYCLIC COMPOUND HAVING MYT1 INHIBITORY ACTIVITY” (CHUGAI SEIYAKU KABUSHIKI KAISHA, priority 2023, published 2026)

Experiments:
[1] = test system: LU65; assay: Cytotoxicity test with pemetrexed upon addition of each example compound (CellTiter-Glo); assay type: cell-based, human; conditions: combination with pemetrexed, LU65 cells, 7 days; maximum value, at the MYT1 inhibitor and pemetrexed concentrations
In short: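 LU65 lung cancer cells (RB1 S82* truncation, reduced RB1 function) in RPMI-1640/10% FBS were treated with pemetrexed plus each compound over concentration series, 7 days at 37 °C. ATP measured by CellTiter-Glo luminescence; survival relative to DMSO after blank subtraction, cytotoxicity = 100% minus survival.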

[2] = target: T1, MYT1 protein (Homo sapiens (Human), UniProt Q99640); assay: MYT1 kinase activity inhibition test (ELISA, phosphorylation of Y15 of CDK1); assay type: biochemical; conditions: phosphorylation level of Y15 of CDK1 protein caused by MYT1 protein, 60 minutes
T1 sequence (Q99640 whole entry): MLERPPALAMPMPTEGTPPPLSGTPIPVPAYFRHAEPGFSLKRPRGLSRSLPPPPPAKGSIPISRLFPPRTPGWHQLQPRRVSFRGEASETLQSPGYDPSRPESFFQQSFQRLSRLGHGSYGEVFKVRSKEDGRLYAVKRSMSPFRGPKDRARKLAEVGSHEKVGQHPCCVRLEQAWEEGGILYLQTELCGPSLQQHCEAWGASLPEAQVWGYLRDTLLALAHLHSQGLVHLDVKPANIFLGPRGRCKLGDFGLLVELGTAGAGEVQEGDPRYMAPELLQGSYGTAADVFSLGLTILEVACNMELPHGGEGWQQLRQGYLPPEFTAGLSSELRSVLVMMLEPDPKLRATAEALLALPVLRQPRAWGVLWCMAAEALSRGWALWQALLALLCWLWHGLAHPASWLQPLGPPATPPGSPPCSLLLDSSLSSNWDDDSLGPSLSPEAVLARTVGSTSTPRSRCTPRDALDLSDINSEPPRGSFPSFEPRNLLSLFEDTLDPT
Description: The MYT1 kinase activity inhibitory capacity of each compound was evaluated by evaluating the phosphorylation level of Y15 of CDK1 protein caused by MYT1 protein, by ELISA. The kit of CycLex Weel Kinase Assay/Inhibitor Screening Kit Ver. 3 (manufactured by MBL, CY-1172V3) was used. Using Kinase Buffer, 10 μL of 5 nM MYT1 protein (manufactured by Carna Biosciences, Inc.) was prepared. In addition, 30 μL of 83.3 μM of ATP was prepared using Kinase Buffer. In addition, 10 μL of each compound was diluted to each concentration using Kinase Buffer. 30 μL of ATP was added to the plate of the kit, and thereafter, 10 μL of each compound was added thereto. Further, 10 μL of the diluted MYT1 protein solution was added thereto, and then the mixture was mixed, which was allowed to stand at room temperature for 60 minutes. The reaction solution was removed from each well, and each well was washed using Wash Buffer. After Wash Buffer was removed, 100 μL of HRP conjugated Anti-phospho-tyrosine antibody was added to each well, which was allowed to stand at room temperature for 60 minutes. Thereafter, the reaction solution was removed from each well, and each well was washed using Wash Buffer. After Wash Buffer was removed, 100 μL of Substrate Reagent was added to each well, which was allowed to stand at room temperature for 8 minutes. Thereafter, 100 μL of Stop Solution (1 N sulfuric acid) was added to each well according to the manual. Absorbances at 450 nm and 590 nm were measured using Envision (manufactured by PerkinElmer). The phosphorylation level of CDK1 protein was evaluated for each well by subtracting the absorbance at 590 nm from the absorbance at 450 nm. The inhibition rate of each compound added at each concentration was calculated by setting the signal when the compound was not added as 100% and the signal when MYT1 protein was not added as 0%, and the calculation results of IC50 were shown in Table 4.

[3] = target: T1, MYT1 protein; assay: Test for binding to ATP binding site of MYT1 (Kinase Tracer 178 / Eu-Anti-GST antibody TR-FRET); conditions: ATP binding site of MYT1, 30 minutes at room temperature

Structure (SMILES) | Bliss Score (Max) [1] | HSA Score (MAX) [1] | IC50 [2] | IC50 [3]
Nc1c(-c2ccc(F)c3[nH]ncc23)c2cc(/C=C/CCO)c3ncccc3c2[nH]c1=O [Compound C100, 3-Amino-4-(7-fluoro-1H-indazol-4-yl)-6-[(E)-4-hydroxybut-1-enyl]-1H-1,7-phenanthrolin-2-one] | 46% | 50% | 5.5 nM | 1.5 nM
Nc1c(-c2ccc(F)c3[nH]ncc23)c2cc(C3CCC4(CC3)OCCO4)c3ncccc3c2[nH]c1=O.O=C(O)C(F)(F)F [Compound C101, 3-Amino-6-(1,4-dioxaspiro[4.5]decan-8-yl)-4-(7-fluoro-1H-indazol-4-yl)-1H-1,7-phenanthrolin-2-one 2,2,2-trifluoroacetate] | 46% | 64% | 7.1 nM | 6.1 nM
CC(C)(O)C#Cc1cc2c(-c3ccc(F)c4[nH]ncc34)c(N)c(=O)[nH]c2c2cccnc12 [Compound C102, 3-Amino-4-(7-fluoro-1H-indazol-4-yl)-6-(3-hydroxy-3-methylbut-1-inyl)-1H-1,7-phenanthrolin-2-one] | 36% | 49% | < 4.6 nM | 3.8 nM
Nc1c(-c2ccc(F)c3[nH]ncc23)c2cc(C3CCN(C4CCC4)CC3)c3ncccc3c2[nH]c1=O [Compound C134, 3-Amino-6-(1-cyclobutylpiperidin-4-yl)-4-(7-fluoro-1H-indazol-4-yl)-1H-1,7-phenanthrolin-2-one] | 49% | 60% | 7.6 nM | 3.6 nM
Nc1c(-c2ccc(F)c3[nH]ncc23)c2cc(C3CCN(C4COC4)CC3)c3ncccc3c2[nH]c1=O [Compound C135, 3-Amino-4-(7-fluoro-1H-indazol-4-yl)-6-[1-(oxetan-3-yl)piperidin-4-yl]-1H-1,7-phenanthrolin-2-one] | 48% | 58% | < 4.6 nM | 2.3 nM
CC(C)N1CCC(c2cc3c(-c4ccc(F)c5[nH]ncc45)c(N)c(=O)[nH]c3c3cccnc23)CC1.O=CO [Compound C136, 3-Amino-4-(7-fluoro-1H-indazol-4-yl)-6-(1-propan-2-ylpiperidin-4-yl)-1H-1,7-phenanthrolin-2-one; formate] | 45% | 57% | 8.3 nM | 3.4 nM
Nc1c(-c2ccc(F)c3[nH]ncc23)c2cc(C3CCN(C4CCOCC4)CC3)c3ncccc3c2[nH]c1=O [Compound C137, 3-Amino-4-(7-fluoro-1H-indazol-4-yl)-6-[1-(oxan-4-yl)piperidin-4-yl]-1H-1,7-phenanthrolin-2-one] | 45% | 56% | 7.7 nM | 4.7 nM
CN1CCC(c2cc3c(-c4ccc(F)c5[nH]ncc45)c(N)c(=O)[nH]c3c3cccnc23)CC1 [Compound C138, 3-Amino-4-(7-fluoro-1H-indazol-4-yl)-6-(1-methylpiperidin-4-yl)-1H-1,7-phenanthrolin-2-one] | 73% | 73% | < 4.6 nM | 2 nM
Nc1c(-c2ccc(F)c3[nH]ncc23)c2cc(C3CCC(=O)CC3)c3ncccc3c2[nH]c1=O [Compound C139, 3-Amino-4-(7-fluoro-1H-indazol-4-yl)-6-(4-oxocyclohexyl)-1H-1,7-phenanthrolin-2-one] | 46% | 54% | 19 nM | 3.3 nM
Nc1c(-c2ccc(F)c3[nH]ncc23)c2cc([C@H]3CC[C@H](O)CC3)c3ncccc3c2[nH]c1=O [Compound C140, 3-Amino-4-(7-fluoro-1H-indazol-4-yl)-6-((1r, 4r)-4-hydroxycyclohexyl)-1H-1,7-phenanthrolin-2-one] | 73% | 76% | < 4.6 nM | 1.7 nM
Nc1c(-c2ccc(F)c3[nH]ncc23)c2cc([C@H]3CC[C@@H](O)CC3)c3ncccc3c2[nH]c1=O [Compound C141, 3-Amino-4-(7-fluoro-1H-indazol-4-yl)-6-((1s, 4s)-4-hydroxycyclohexyl)-1H-1,7-phenanthrolin-2-one] | 78% | 72% | 11 nM | 4.9 nM
Nc1c(-c2ccc(Cl)c3[nH]ncc23)c2cc(C3CC3)c3ncccc3c2[nH]c1=O [Compound C143, 3-Amino-4-(7-chloro-1H-indazol-4-yl)-6-cyclopropyl-1H-1,7-phenanthrolin-2-one] | 50% | 67% | 0.2 nM | 2.7 nM
Nc1c(-c2ccc(Cl)c3[nH]ncc23)c2ccc3ncccc3c2[nH]c1=O [Compound C144, 3-Amino-4-(7-chloro-1H-indazol-4-yl)-1H-1,7-phenanthrolin-2-one] | 39% | 47% | 0.32 nM | 7 nM
Nc1c(-c2ccc(F)c3[nH]ncc23)c2cc(C3CCNC3)c3ncccc3c2[nH]c1=O.O=CO (centres unmarked) [Compound C146, 3-Amino-4-(7-fluoro-1H-indazol-4-yl)-6-pyrrolidin-3-yl-1H-1,7-phenanthrolin-2-one; formate] | 44% | 44% | 16 nM | 3.4 nM
Cc1cc2c(-c3c(F)ccc4[nH]ncc34)c(N)c(=O)[nH]c2c2cccnc12 [Compound C155, 3-Amino-4-(5-fluoro-1H-indazol-4-yl)-6-methyl-1H-1,7-phenanthrolin-2-one] | 47% | 61% | < 4.6 nM | 2.3 nM
Nc1c(-c2cccc3[nH]ncc23)c2cc(C3CC3)c3ncccc3c2[nH]c1=O [Compound C185, 3-Amino-6-cyclopropyl-4-(1H-indazol-4-yl)-1H-1,7-phenanthrolin-2-one] | 55% | 68% | 0.31 nM | 2.8 nM
Cc1cc2c(-c3cc(F)c(F)c4[nH]ncc34)c(N)c(=O)[nH]c2c2cccnc12 [Compound C190, 3-amino-4-(6,7-difluoro-1H-indazol-4-yl)-6-methyl-1H-1,7-phenanthrolin-2-one] | 48% | 66% | 0.34 nM | 2.5 nM
Nc1c(-c2cc(F)c(Cl)c3[nH]ncc23)c2cc(C3CC3)c3ncccc3c2[nH]c1=O [Compound C195, 3-Amino-4-(7-chloro-6-fluoro-1H-indazol-4-yl)-6-cyclopropyl-1H-1,7-phenanthrolin-2-one] | 52% | 65% | 0.24 nM | 2.3 nM
CC(=O)c1cc2c(-c3ccc(F)c4[nH]ncc34)c(N)c(=O)[nH]c2c2cccnc12 [Compound C200, 6-Acetyl-3-amino-4-(7-fluoro-1H-indazol-4-yl)-1H-1,7-phenanthrolin-2-one] | 44% | 56% | 7 nM | 2.4 nM
Nc1c(-c2ccc(F)c3[nH]ncc23)c2cc(C3CC3)c3cccnc3c2[nH]c1=O [Compound D2, 3-Amino-6-cyclopropyl-4-(7-fluoro-1H-indazol-4-yl)-1H-1,10-phenanthrolin-2-one] | 42% | 51% | 15 nM | 4 nM
Nc1c(-c2ccc(F)c3[nH]ncc23)c2cc(O[C@H]3C[C@H](F)C3)c3nccnc3c2[nH]c1=O [Compound G16, 8-Amino-5-((1,3r)-3-fluorocyclobutyl)oxy-7-(7-fluoro-1H-indazol-4-yl)-10H-pyrido[2,3-f]quinoxalin-9-one] | 50% | 58% | 0.086 nM | 0.91 nM
Nc1c(-c2cccc3[nH]ncc23)c2cc(C3CC3)c3cnccc3c2[nH]c1=O [Compound P1, 3-Amino-6-cyclopropyl-4-(1H-indazol-4-yl)-1H-1,8-phenanthrolin-2-one] | 49% | 55% | 0.22 nM | 1.8 nM
Nc1c(-c2ccc(F)c3[nH]ncc23)c2cc(C3CC3)c3cnccc3c2[nH]c1=O.O=C(O)C(F)(F)F [Compound P4, 3-Amino-6-cyclopropyl-4-(7-fluoro-1H-indazol-4-yl)-1H-1,8-phenanthrolin-2-one 2,2,2-trifluoroacetate] | 56% | 67% | 5.9 nM | 6.1 nM
